pIC50: −log10 of the molar value. Read-outs that look alike come from different tables or passages of the source.
Assays:
NHL cell lines = test: Apoptosis assay for NHL lines (panel statement); type: cell-based; conditions: multiple NHL cell lines in vitro; FIG. 2
Procedure: Apoptosis Assay for NHL Lines. Prior to testing, cells were grown and expanded in culture flasks to provide sufficient amounts of starting material. Cells were then diluted to their desired densities and added directly to compound-spotted 384-well plates. Cells were allowed to grow for 24 hours in 5% CO2 at 37° C. The apoptotic response was assessed by quantifying the activities of caspase 3 and caspase 7 (Caspase 3/7-Glo) in treated cells and control cells at the 24-hour time point. All data was normalized and represented as a value relative to the DMSO-treated cells. Results were then expressed as CalX, which is the minimum compound concentration required to double the levels of caspase 3/7 relative to those of the DMSO-treated cells during their treatment period.

U87MG-Luc cells = test: U87MG intracranial glioblastoma model; type: in vivo, Nude mice; conditions: up to 6 weeks
Procedure: U87MG Intracranial Glioblastoma Model (Compound 1). An intracranial glioblastoma study was conducted with U87MG cells transfected with luciferase (U87-MG-Luc). Nude mice were inoculated intracranially with U87MG-Luc cells into the brain. Following inoculation of animals, the tumors were allowed to grow for 7 days. On day 7 following tumor cell inoculation, the mice were imaged using Xenogen imaging system. The mice having tumors with an average flux ranging between 6.29×10^7 and 1.59×10^8 photons/sec were pooled together and randomized into various treatment groups. Compound 1 was formulated in 0.5% CMC and 0.25% Tween 80 in water (as a suspension). The animals were orally administered vehicle (CMC-Tween) or Compound 1 once daily (QD) for up to 6 weeks. Doses of Compound 1 ranged between 2.5 and 20 mg/kg. The positive control Temozolomide (10 mg/kg, QD) was administered via intra peritoneal (IP) route. Temozolomide was formulated in 5% N-methylpyrrolidone, 45% PEG400 and 50% saline. The animals were imaged for bioluminescence once a week using Xenogen imaging system and monitored for survival. Statistical analysis was performed using a log-rank test between Compound-treated and vehicle-treated control groups.
U87MG Intracranial Glioblastoma Model (Compound 2). […] The animals were imaged for bioluminescence once a week using Xenogen imaging system and monitored for survival. […]

[1] = Phase 1/2 study Part A: safety and tolerability
Source text: The study is designed as a Phase 1/2 trial consisting of two parts: dose escalation (Part A) and dose expansion (Part B).
Subsequently, a standard escalation dosing schedule with approximately 50% dose increments and 6 subjects per cohort will be initiated in order to establish the non-tolerated dose (NTD) and MTD. Smaller increments and additional subjects within a dose cohort may also be evaluated.
A dose will be considered to be non-tolerated if 2 evaluable subjects in a dose cohort experience dose-limiting toxicity (DLT). When a NTD is defined, dose escalation will be stopped. The MTD will be defined as the last dose tested below the NTD with 0 or 1 out of 6 evaluable subjects experiencing DLT during Cycle 1. An intermediate dose (i.e., one between the NTD and the last dose level before the NTD) or additional subjects within any dose cohort may be required to determine the MTD more precisely.
The safety variables for this study are adverse events, clinical laboratory variables, 12-lead ECGs (centrally reviewed), LVEF assessments, physical examinations and vital signs. In Part A, the decision to either evaluate a higher dose level or declare a MTD will be determined by the Safety Review Committee (SRC) each time all clinical and laboratory safety data for a given cohort is available for review. The SRC will also determine the dose, doses, or schedule appropriate for Part B. During Part B, the SRC will continue to review safety data regularly and make recommendations about the study continuation, as appropriate.
Part A: Accelerated Dose Escalation Results.

RPMI = test: Cell proliferation and viability assay for MM lines; type: cell-based; conditions: 5 days, 7AAD FACS
Procedure: (§1) Cell Proliferation and Viability Assay for MM Lines. Prior to use, cells were washed and maintained in medium for 5 days. Cells were seeded out at a density of 0.3×10^6 cells/mL in a 12-well plate and treated with Compound 1 or Compound 2 for 5 days. 7AAD detection fluorescence-activated cell sorting (FACS) flow cytometry was used in the analysis.

OPM2 = test: as above; type: cell-based; conditions: OPM2, 5 days, 7AAD FACS
Procedure: as §1

LP-1 = test: as above; type: cell-based; conditions: LP-1, 5 days, 7AAD FACS
Procedure: as §1

MM1.S = test: as above; type: cell-based; conditions: 5 days, 7AAD FACS
Procedure: as §1

DF15 = test: as above; type: cell-based; conditions: DF15, 5 days, 7AAD FACS
Procedure: as §1

U266 = test: as above; type: cell-based; conditions: U266, 5 days, 7AAD FACS
Procedure: as §1

H929 = test: as above; type: cell-based; conditions: H929, 5 days, 7AAD FACS
Procedure: as §1

CAG = test: as above; type: cell-based; conditions: 5 days, 7AAD FACS
Procedure: as §1

KMS34 = test: as above; type: cell-based; conditions: KMS34, 5 days, 7AAD FACS
Procedure: as §1

[2] = 120 h, read-out: IC50, Proliferation
[3] = 120 h, read-out: IC50, Viability
[4] = Homo sapiens, 120 h, read-out: IC50, Viability

CO[C@H]1CC[C@H](N2C(=O)CNc3ncc(-c4ccc(C(C)(C)O)nc4)nc32)CC1 [Compound 1, 7-(6-(2-hydroxypropan-2-yl)pyridin-3-yl)-1-((1r,4r)-4-methoxycyclohexyl)-3,4-dihydropyrazino-[2,3-b]pyrazin-2(1H)-one]
apoptosis induction (NHL cell lines): induce apoptosis | survival (U87MG-Luc cells; 2.5 to 20 mg/kg QD oral, FIG. 14): significantly prolonged the life | DLT ([1]; 30 mg): Grade 3 hyperglycemia | DLT ([1]; 45 mg): grade 3 rash | DLT ([1]; 60 mg): Fatigue and mucositis | dose level of the first grade 2 related toxicity ([1]; 3rd dose level): 30 mg | most frequent related events ([1]; N=28, 7.5 to 60 mg): Fatigue, GI toxicity (including mucositis/stomatitis), hyperglycemia, rash and arthralgia | MTD ([1]; once daily, oral): 45 mg | NTD ([1]; once daily, oral): 60 mg | Hyperglycemia ([1]; onset often during cycle 1, dose related): reported frequently | interstitial pneumonitis ([1]; responded to steroid treatment): One case of grade 3 interstitial pneumonitis requiring hospitalization | tolerability ([1]; toxicities comparable to other drugs targeting this pathway): well tolerated | pIC50 (RPMI; read-out: IC50, Proliferation): 6.77 | pIC50 (RPMI; read-out: IC50, Viability): 5.96 | pIC50 (OPM2; read-out: IC50, Proliferation): 6.48 | pIC50 (OPM2; read-out: IC50, Viability): 6.22 | pIC50 (LP-1; read-out: IC50, Proliferation): 6.66 | pIC50 (MM1.S; read-out: IC50, Proliferation): 6.36 | pIC50 (MM1.S; read-out: IC50, Viability): 6.00 | pIC50 (DF15; read-out: IC50, Proliferation): 7.00 | pIC50 (DF15; read-out: IC50, Viability): 6.07 | pIC50 (U266; read-out: IC50, Proliferation): 6.25 | pIC50 (H929; read-out: IC50, Proliferation): 6.72 | pIC50 (H929; read-out: IC50, Viability): 6.14 | pIC50 (CAG; read-out: IC50, Proliferation): 6.10 | pIC50 (CAG; read-out: IC50, Viability): 5.59 | pIC50 (KMS34; read-out: IC50, Proliferation): 7.00 | pIC50 (KMS34; read-out: IC50, Viability): 6.38

CCN1C(=O)CNc2ncc(-c3ccc(-c4nc[nH]n4)nc3C)nc21 [Compound 2, 1-ethyl-7-(2-methyl-6-(1H-1,2,4-triazol-3-yl)pyridin-3-yl)-3,4-dihydropyrazino[2,3-b]pyrazin-2(1H)-one]
apoptosis induction (NHL cell lines): induce apoptosis | survival (U87MG-Luc cells; 0.5 to 5 mg/kg QD oral, FIG. 16): significantly prolonged the life | pIC50 (RPMI; [2]): 6.82 | pIC50 (RPMI; [3]): 6.35 | pIC50 (OPM2; Homo sapiens, OPM-2, 120 h, read-out: IC50, Proliferation): 6.43 | pIC50 (OPM2; Homo sapiens, OPM-2, 120 h, read-out: IC50, Viability): 6.29 | pIC50 (LP-1; Homo sapiens, 120 h, read-out: IC50, Proliferation): 6.80 | pIC50 (LP-1; [4]): 6.08 | pIC50 (MM1.S; [4]): 6.07 | pIC50 (DF15; [2]): 7.30 | pIC50 (DF15; [3]): 6.24 | pIC50 (U266; Homo sapiens, U-266, 120 h, read-out: IC50, Proliferation): 6.49 | pIC50 (U266; Homo sapiens, U-266, 120 h, read-out: IC50, Viability): 5.37 | pIC50 (H929; Homo sapiens, NCI-H929, 120 h, read-out: IC50, Proliferation): 6.89 | pIC50 (H929; Homo sapiens, NCI-H929, 120 h, read-out: IC50, Viability): 6.40 | pIC50 (CAG; [2]): 6.39 | pIC50 (CAG; [3]): 5.82 | pIC50 (KMS34; KMS-34, 120 h, read-out: IC50, Proliferation): 7.15 | pIC50 (KMS34; KMS-34, 120 h, read-out: IC50, Viability): 6.92
